Measurements as given in US4192888A, “Pharmaceutical compositions and method of inhibiting phenylethanolamine N-methyltransferase” (SmithKline Corporation, priority 1978, dated 1980).

Legend:
PNMT = assay: In vivo conversion of 3H-norepinephrine into 3H-epinephrine in rat adrenals after oral dosing (PNMT inhibition); settings: rats, 50 mg./kg. three times over 24 hours, tracer 3H-norepinephrine i.v. (tail vein) one hour after last dose, adrenals assayed 45 min later, active if p<0.05
From the text: One hour after the last dose the rats are given a tracer dose of ^3 H-norepinephrine into a tail vein. Forty-five minutes later they are sacrificed by decapitation and the adrenals assayed for ^3 H-epinephrine and ^3 H-norepinephrine.

[1] = target: T1, phenylethanolamine N-methyltransferase (Oryctolagus cuniculus, UniProt G1TT82); assay: In vitro inhibition of phenylethanolamine N-methyltransferase (Pendleton and Snow procedure); type: biochemical; settings: for In Vitro Inhibition % at 10^-4: compound concentration 10^-4; for inhibition at 1 µM: compound concentration 10^-6M
T1 construct: from tissue
T1 sequence (G1TT82 1-286): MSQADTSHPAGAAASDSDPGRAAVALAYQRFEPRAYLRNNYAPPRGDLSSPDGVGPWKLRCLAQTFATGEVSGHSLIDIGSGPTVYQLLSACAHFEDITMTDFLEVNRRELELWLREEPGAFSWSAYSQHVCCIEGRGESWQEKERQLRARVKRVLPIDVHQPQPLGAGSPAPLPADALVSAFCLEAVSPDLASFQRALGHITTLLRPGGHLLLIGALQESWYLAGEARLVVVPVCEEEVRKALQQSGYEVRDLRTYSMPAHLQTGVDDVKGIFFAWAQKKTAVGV
From the text: For example, following are in vitro results obtained from testing several compounds present in the pharmaceutical compositions and methods of this invention.

Question: `NC1Cc2ccc(S(N)(=O)=O)cc2C1` (stereo not shown) [5-sulfamoyl-2-aminoindane, 5-sulfamyl-2-indanamine] was tested. Which “inhibition of the conversion of radioactive norepinephrine into epinephrine” value (PNMT) did it give?
Answer: Its value is “significantly inhibited this conversion (p<0.01)”.

Question: With `NC1Cc2ccc(Cl)cc2C1` (stereo not shown) [compound 85506] as the molecule, how does the “In Vitro Inhibition % at 10^-4” value [1] read?
Answer: The value was 96%.

Question: What about the inhibition at 1 µM [1] of the same molecule?
Answer: The inhibition at 1 µM was 37%.

Question: With `NC1Cc2ccc([N+](=O)[O-])cc2C1` (stereo not shown) [compound 85391] as the molecule, how does the “In Vitro Inhibition % at 10^-4” value [1] read?
Answer: Its value is 96%.

Question: And the inhibition at 1 µM [1]?
Answer: Its inhibition at 1 µM is 23%.

Question: What does the source list for `NC1Cc2ccc(Br)cc2C1` (stereo not shown) [compound 85347]?
Answer: In Vitro Inhibition % at 10^-4 [1]: 96%; inhibition at 1 µM [1]: 33%
